Measurements as given in article doi:10.1101/2021.04.08.439011v1 (biorxiv, 2021).

What was measured:
[1] = target: LZK (Homo sapiens, UniProt O43283); conditions: 1 µM; binder
[2] = target: CDC42BPG (Homo sapiens, UniProt Q6DT37); conditions: 1 µM; binder
[3] = target: WNK2 (Homo sapiens, UniProt Q9Y3S1); conditions: 1 µM; binder
[4] = target: HIPK3 (Homo sapiens, UniProt Q9H422); conditions: 1 µM; binder
[5] = target: RPS6KA4 (Homo sapiens, UniProt O75676); conditions: Kin.Dom.1 N-terminal; binder
[6] = target: FLT3(N841I) (Homo sapiens, UniProt P36888, N841I); conditions: 1 µM; binder
[7] = target: IKK-beta (Homo sapiens, UniProt O14920); conditions: 1 µM; binder
[8] = target: CAMK2D (Homo sapiens, UniProt Q13557); conditions: 1 µM; binder
[9] = target: YANK2 (Homo sapiens, UniProt Q9NY57); conditions: 1 µM; binder
YANK2, sequence (Q9NY57 whole entry): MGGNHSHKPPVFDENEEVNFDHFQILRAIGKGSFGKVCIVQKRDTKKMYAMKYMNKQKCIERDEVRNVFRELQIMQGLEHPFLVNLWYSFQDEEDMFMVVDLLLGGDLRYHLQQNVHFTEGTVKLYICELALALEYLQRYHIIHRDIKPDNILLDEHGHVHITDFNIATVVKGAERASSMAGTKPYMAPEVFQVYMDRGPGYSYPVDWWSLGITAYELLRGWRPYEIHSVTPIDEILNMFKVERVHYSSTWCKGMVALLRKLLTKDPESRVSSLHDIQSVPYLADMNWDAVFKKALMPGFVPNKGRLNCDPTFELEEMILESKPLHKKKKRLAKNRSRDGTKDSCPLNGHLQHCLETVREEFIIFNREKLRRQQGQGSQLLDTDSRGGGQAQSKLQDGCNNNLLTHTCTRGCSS

[10] = target: ABL1(T315I) (Homo sapiens, UniProt P00519, T315I); conditions: nonphosphorylated; 1 µM; binder
[11] = target: SBK1 (Homo sapiens, UniProt Q52WX2); conditions: 1 µM; binder
[12] = target: HCK (Homo sapiens, UniProt P08631); conditions: 1 µM; binder
HCK, sequence (P08631 whole entry): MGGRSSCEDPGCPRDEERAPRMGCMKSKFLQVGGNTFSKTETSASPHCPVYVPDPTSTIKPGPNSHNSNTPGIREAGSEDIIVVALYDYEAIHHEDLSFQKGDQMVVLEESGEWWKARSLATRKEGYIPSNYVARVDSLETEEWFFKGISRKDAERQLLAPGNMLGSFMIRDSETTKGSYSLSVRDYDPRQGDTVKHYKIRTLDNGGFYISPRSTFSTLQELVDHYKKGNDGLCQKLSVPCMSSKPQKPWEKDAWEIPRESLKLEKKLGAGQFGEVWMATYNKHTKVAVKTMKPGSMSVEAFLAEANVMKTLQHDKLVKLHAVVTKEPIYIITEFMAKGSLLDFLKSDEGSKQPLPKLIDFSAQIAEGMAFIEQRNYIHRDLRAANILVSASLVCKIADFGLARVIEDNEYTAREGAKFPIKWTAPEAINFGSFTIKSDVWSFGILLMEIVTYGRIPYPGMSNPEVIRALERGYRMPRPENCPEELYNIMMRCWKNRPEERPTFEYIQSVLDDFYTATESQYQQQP

[13] = target: ERK2 (Homo sapiens, UniProt P28482); conditions: 1 µM; binder
ERK2, sequence (P28482 whole entry): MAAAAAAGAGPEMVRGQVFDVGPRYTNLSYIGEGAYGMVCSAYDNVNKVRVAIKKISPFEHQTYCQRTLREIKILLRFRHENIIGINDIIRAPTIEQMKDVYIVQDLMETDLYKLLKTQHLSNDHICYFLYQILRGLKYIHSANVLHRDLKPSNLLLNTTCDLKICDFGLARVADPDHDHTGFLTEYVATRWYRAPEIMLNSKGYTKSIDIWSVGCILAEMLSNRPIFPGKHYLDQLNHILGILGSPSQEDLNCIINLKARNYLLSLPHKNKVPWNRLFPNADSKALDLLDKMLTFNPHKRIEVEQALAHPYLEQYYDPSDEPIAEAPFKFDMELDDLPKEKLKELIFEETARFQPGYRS

[14] = target: ROCK2 (Homo sapiens, UniProt O75116); conditions: 1 µM; binder
[15] = target: VRK2 (Homo sapiens, UniProt Q86Y07); conditions: 1 µM; binder
[16] = target: CAMK4 (Homo sapiens, UniProt Q16566); conditions: 1 µM; binder
[17] = target: MARK3 (Homo sapiens, UniProt P27448); conditions: 1 µM; binder
MARK3, sequence (P27448 whole entry): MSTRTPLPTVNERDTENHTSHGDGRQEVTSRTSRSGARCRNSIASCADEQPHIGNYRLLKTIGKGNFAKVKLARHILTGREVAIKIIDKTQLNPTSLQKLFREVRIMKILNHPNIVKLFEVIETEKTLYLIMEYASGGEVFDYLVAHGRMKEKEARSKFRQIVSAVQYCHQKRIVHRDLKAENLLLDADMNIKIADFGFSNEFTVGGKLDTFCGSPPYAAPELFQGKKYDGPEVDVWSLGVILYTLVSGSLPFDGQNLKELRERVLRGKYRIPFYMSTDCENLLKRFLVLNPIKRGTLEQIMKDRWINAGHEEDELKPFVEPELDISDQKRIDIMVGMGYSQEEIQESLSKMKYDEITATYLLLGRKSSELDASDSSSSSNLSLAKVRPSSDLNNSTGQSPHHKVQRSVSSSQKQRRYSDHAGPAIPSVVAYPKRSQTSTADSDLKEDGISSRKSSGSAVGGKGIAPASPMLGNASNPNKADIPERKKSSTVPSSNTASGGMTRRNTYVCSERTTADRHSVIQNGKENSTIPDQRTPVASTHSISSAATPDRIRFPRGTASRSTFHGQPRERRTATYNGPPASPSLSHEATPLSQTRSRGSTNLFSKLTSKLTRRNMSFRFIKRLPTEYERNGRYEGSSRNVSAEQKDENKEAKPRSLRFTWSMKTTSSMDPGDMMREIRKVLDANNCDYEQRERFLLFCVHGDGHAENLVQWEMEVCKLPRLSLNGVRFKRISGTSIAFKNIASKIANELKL

[18] = target: AMPK-alpha2 (Homo sapiens, UniProt P54646); conditions: 1 µM; binder
[19] = target: KIT-autoinhibited (Homo sapiens, UniProt P10721); conditions: 1 µM; binder
[20] = target: CDK7 (Homo sapiens, UniProt P50613); conditions: 1 µM; binder
[21] = target: PKN2 (Homo sapiens, UniProt Q16513); conditions: 1 µM; binder
[22] = target: KIT (Homo sapiens, UniProt P10721); conditions: 1 µM; binder
[23] = target: PDGFRB (Homo sapiens, UniProt P09619); conditions: 1 µM; binder
[24] = target: NDR1 (Homo sapiens, UniProt Q15208); conditions: 1 µM; binder
[25] = target: EGFR(L861Q) (Homo sapiens, UniProt P00533, L861Q); conditions: 1 µM; binder
[26] = target: AURKA (Homo sapiens, UniProt O14965); conditions: 1 µM; binder
AURKA, sequence (O14965 whole entry): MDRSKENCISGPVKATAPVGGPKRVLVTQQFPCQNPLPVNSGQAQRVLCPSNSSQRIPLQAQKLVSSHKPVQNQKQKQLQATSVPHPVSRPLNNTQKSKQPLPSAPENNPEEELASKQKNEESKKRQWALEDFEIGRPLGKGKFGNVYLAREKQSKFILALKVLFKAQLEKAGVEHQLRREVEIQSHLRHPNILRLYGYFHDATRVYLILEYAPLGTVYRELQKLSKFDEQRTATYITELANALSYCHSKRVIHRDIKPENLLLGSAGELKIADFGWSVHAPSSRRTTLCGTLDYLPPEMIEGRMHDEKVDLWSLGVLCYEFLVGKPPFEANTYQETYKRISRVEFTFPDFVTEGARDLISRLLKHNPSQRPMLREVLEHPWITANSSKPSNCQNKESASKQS

[27] = target: MAP4K4 (Homo sapiens, UniProt O95819); conditions: 1 µM; binder
MAP4K4, sequence (O95819 whole entry): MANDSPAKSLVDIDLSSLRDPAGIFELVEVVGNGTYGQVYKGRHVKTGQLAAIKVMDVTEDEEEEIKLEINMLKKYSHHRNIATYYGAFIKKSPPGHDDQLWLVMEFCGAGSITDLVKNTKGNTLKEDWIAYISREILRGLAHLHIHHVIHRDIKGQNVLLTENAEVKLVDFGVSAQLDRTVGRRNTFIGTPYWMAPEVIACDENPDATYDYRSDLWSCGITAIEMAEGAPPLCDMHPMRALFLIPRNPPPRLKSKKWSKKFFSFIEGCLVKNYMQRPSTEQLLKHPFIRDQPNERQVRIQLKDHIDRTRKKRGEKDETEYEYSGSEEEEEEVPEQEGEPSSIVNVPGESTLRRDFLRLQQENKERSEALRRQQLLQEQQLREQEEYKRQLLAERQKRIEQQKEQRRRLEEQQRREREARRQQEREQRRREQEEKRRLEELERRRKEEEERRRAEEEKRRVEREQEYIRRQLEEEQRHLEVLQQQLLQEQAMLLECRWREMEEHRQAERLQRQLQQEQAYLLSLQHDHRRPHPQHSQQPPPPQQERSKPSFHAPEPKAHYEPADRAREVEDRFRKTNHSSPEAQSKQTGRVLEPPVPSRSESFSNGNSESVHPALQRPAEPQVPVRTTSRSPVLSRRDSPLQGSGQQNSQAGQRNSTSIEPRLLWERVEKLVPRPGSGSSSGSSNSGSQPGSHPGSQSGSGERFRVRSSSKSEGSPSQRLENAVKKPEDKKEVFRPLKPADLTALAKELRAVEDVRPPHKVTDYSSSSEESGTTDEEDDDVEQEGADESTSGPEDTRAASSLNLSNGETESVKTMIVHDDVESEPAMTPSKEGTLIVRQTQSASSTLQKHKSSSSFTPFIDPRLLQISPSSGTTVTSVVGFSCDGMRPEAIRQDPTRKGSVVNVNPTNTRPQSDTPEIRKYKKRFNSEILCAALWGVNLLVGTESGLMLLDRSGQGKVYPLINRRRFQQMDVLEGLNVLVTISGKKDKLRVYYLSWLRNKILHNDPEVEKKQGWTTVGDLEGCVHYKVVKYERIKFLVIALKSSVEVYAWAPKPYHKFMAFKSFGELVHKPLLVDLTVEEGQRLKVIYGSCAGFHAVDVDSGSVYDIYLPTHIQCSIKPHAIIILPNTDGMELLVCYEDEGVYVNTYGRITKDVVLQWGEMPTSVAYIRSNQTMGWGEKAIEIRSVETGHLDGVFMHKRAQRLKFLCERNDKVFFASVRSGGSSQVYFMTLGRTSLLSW

[28] = target: IRAK1 (Homo sapiens, UniProt P51617); conditions: 1 µM; binder
[29] = target: p38-gamma (Homo sapiens, UniProt P53778); conditions: 1 µM; binder
p38-gamma, sequence (P53778 whole entry): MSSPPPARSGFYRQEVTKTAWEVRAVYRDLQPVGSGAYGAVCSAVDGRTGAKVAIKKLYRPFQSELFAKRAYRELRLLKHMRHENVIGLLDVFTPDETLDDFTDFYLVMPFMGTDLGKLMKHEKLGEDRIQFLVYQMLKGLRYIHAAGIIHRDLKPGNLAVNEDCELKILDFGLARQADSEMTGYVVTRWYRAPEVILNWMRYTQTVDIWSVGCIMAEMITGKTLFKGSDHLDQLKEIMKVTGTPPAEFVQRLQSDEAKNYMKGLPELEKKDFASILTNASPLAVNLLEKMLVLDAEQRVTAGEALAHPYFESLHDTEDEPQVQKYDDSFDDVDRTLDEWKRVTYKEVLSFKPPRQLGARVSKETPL

[30] = target: RIOK2 (Homo sapiens, UniProt Q9BVS4); conditions: 1 µM; binder

LZK, sequence (O43283 whole entry): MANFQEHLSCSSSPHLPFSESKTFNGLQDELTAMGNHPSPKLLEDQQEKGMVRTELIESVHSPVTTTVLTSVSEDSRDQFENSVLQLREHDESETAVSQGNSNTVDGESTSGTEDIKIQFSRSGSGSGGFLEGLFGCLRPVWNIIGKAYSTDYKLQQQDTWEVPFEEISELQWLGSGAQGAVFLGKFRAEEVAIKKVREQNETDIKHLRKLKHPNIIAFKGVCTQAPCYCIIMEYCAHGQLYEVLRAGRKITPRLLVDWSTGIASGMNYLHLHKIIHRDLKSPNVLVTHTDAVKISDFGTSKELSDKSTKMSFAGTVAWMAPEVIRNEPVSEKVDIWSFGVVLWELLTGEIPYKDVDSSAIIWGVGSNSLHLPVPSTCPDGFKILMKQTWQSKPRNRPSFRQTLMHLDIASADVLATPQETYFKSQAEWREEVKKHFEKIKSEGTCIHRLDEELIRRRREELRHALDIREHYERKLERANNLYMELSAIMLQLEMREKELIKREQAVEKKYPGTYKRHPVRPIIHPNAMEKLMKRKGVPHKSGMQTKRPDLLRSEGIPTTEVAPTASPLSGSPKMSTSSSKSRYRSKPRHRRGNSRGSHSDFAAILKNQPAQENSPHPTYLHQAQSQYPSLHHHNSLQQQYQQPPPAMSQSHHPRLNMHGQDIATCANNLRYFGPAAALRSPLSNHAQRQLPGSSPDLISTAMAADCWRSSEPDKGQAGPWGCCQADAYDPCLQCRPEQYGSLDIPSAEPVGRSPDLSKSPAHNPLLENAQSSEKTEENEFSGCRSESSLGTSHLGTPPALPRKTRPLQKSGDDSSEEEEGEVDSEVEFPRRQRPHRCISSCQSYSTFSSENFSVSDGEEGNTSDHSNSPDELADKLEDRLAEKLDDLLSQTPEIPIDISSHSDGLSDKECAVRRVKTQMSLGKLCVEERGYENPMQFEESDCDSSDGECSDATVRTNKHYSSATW

CNc1ncc2cc(-c3ccc(-c4cccc(C)n4)cc3Cl)c(=O)n(C[C@H]3OC[C@H](N)CO3)c2n1 [compound 6, G-5555]
Percent Control [1]: 100%
Percent Control [2]: 15%
Percent Control [3]: 88%
Percent Control [4]: 100%
Percent Control [5]: 100%
Percent Control [6]: 97%
Percent Control [7]: 80%
Percent Control [8]: 100%
Percent Control [9]: 0%
Percent Control [10]: 100%
Percent Control [11]: 100%
Percent Control [12]: 100%
Percent Control [13]: 86%
Percent Control [14]: 90%
Percent Control [15]: 100%
Percent Control [16]: 96%
Percent Control [17]: 18%
Percent Control [18]: 47%
Percent Control [19]: 81%
Percent Control [20]: 86%
Percent Control [21]: 100%
Percent Control [22]: 100%
Percent Control [23]: 84%
Percent Control [24]: 70%
Percent Control [25]: 100%
Percent Control [26]: 43%
Percent Control [27]: 100%
Percent Control [28]: 49%
Percent Control [29]: 100%
Percent Control [30]: 100%
